{"source": "patent US7297790B2", "about": "“Anhydrous mirtazapine crystals and process for preparing the same” (Sumitomo Chemical Company, Limited, priority 1999, dated 2007)", "test": "Hygroscopic degree of crystals stored at constant temperature and humidity (petri dish, weight gain)", "format": "physicochemical", "conditions": "75% relative humidity, chamber temperature 25° C., after 500 hours; compared with Comparative Example 3", "protocol": "Next, the mirtazapine crystals obtained in Example 7 and Comparative Example 3 were placed on a petri dish, and the petri dish was placed in a constant temperature and humidity of 75% relative humidity and a chamber temperature of 25° C., and the change in the hygroscopic degree of the crystals was evaluated. Incidentally, the hygroscopic degree is calculated by the following equation: [Hygroscopic Degree (% by weight)]=[(Weight (g) of Crystals After Treatment)−(Weight (g) of Crystals Before Treatment)]÷[Weight (g) of Crystals Before Treatment]×100"}
{"smiles": "CN1CCN2c3ncccc3Cc3ccccc3C2C1", "note": "(stereo not shown) [Example 7, anhydrous mirtazapine]", "values": [{"measurement": "hygroscopic degree with the passage of time (FIG. 2), in words", "result": "very low"}]}
